Data as given in patent publication US9636323B2, “Method of treating cancer that overexpresses TopBP1” (Baylor College of Medicine, priority 2014, dated 2017).

Tests used:
[1] = test system: TopBP1-BRCT7/8 binding to p53(DBD); experiment: GST-p53(DBD) pulldown assay; details: FIG. 1g
Experimental: Purified TopBP1-BRCT7/8 (2 μg) was incubated with compounds in NETN-A buffer as above at 4° C. for 3 h with constant rotation. Then purified GST-p53-DBD or GST (2 μg) were added and rotated for another 3 h at 4° C. GST-p53-DBD was then pulled down with glutathione-Sepharose. The beads were washed six times with NETN-B buffer and then subjected to SDS-PAGE analysis.

[2] = test system: TopBP1-BRCT7/8 binding to pS1159 peptide; experiment: pS1159 peptide binding assay (streptavidin Sepharose pulldown); details: FIG. 1f
Experimental: The GST fusion proteins in Escherichia coli strain BL21 were induced by 0.1 mM IPTG (isopropyl-β-D-thiogalactopyranoside) and purified according to the standard protocol. The GST portion on GST-TopBP1-BRCT7/8 was excised by Pre-Scission protease (Pharmacia). Two purified (>98%) biotin conjugated peptides were synthesized from Sigma Genosys. The peptide sequence is derived from the surrounding sequence of TopBP1 S1159: pP, Btn-[…]pSer^1159NLQWPS and nP, Btn-[…]. Purified TopBP1-BRCT7/8 (2 μg) was incubated with compounds in NETN-A buffer (50 mM NaCl, 1 mM EDTA, 20 mM Tris, 0.5% NP-40) at 4° C. for 3 h with constant rotation. Then 2 μg of purified pP or nP peptides were added and rotated for another 3 h at 4° C. The biotin-conjugated peptides were then pulled down with streptavidin-Sepharose (Amersham). The beads were washed six times with NETN-B buffer (100 mM NaCl, 1 mM EDTA, 0.2 mM phenylmethylsulfonyl fluoride) and then subjected to sodium dodecyl sulfate-polyacrylamide gel electrophoresis (SDS-PAGE) and analyzed by Western blotting with anti-TopBP1 antibody (1:1000, BL893, Bethyl Laboratories).

Structure (SMILES): O=C(O)CN(CC(=O)O)Cc1cc2c(cc1O)Oc1cc(O)c(CN(CC(=O)O)CC(=O)O)cc1C21OC(=O)c2ccccc21 [Calcein, calcein]
- concentrations at which TopBP1/p53(DBD) interaction was blocked [1]: submicromolar
- effective amount of Calcein that needs to be present ([1]; GST-p53(DBD) pulldown): 60 to 300 nM
- concentrations at which TopBP1/pS1159 interaction was blocked [2]: submicromolar
- effective amount of Calcein that needs to be present ([2]; pS1159 peptide binding): 60 to 300 nM
